In patent US20100234390A1, “NOVEL COMPOUND AND THEIR USE” (priority 2007, published 2010):

How the values were obtained:
Test in all cases: Agar dilution MIC
Conditions in all cases: 35° C., 16-20 hours
[1] = test system: M. catarrhalis ATCC 43617; type: cell-based, Moraxella catarrhalis
Description: (§1) Briefly, the compounds of invention were weighed, dissolved in dimethyl sulfoxide, serially two fold diluted in the same solvent and then incorporated into molten Mueller Hinton Agar (MHA) in a petridish just before solidification, with each petridish containing a different concentration of a compound.
(§2) The bacterial inoculum was prepared by picking 3 to 5 well isolated bacterial colonies with the same morphological appearance from an 18-24 hours old culture with an inoculating loop, transferring the growth to a tube containing 3 mL of normal saline and adjusting the turbidity of the saline suspension to 0.5 Mc Farland Turbidity Standard equivalent to a bacterial population of 1.5×10^8 colony forming units (CFU) per mL of suspension. The suspension was diluted 1:10 in saline (i.e. 0.5 mL suspension 4.5 mL saline) to get a bacterial population of 1.5×10^7 CFU/mL as inoculum.
(§3) The inoculated petridishes were incubated at 35° C. in an ambient atmosphere for 16-20 hours.

[2] = test system: M. catarrhalis ATCC 43627; type: cell-based, Moraxella catarrhalis
Description: as §1, §2, §3

[3] = test system: M. catarrhalis ATCC 43628; type: cell-based, Moraxella catarrhalis
Description: as §1, §2, §3

E. faecalis MRO 04035 = type: cell-based, Enterococcus faecalis
Description: as §1, §2, §3

E. faecalis MRO 04050 = type: cell-based, Enterococcus faecalis
Description: as §1, §2, §3

E. faecalis MRO 04205 = type: cell-based, Enterococcus faecalis
Description: as §1, §2, §3

E. faecalis ATCC 51299 = type: cell-based, Enterococcus faecalis
Description: as §1, §2, §3

E. faecalis ATCC 29212 = type: cell-based, Enterococcus faecalis
Description: as §1, §2, §3

S. epidermidis MRO 02095 = type: cell-based
Description: as §1, §2, §3

[4] = test system: S. epidermidis MRO 002046; type: cell-based
Description: as §1, §2, §3

S. epidermidis MRO 02002 = type: cell-based
Description: as §1, §2, §3

[5] = test system: S. saprophyticus MRO 02003; type: cell-based
Description: as §1, §2, §3

S. epidermidis MRO 02045 = type: cell-based
Description: as §1, §2, §3

[6] = test system: S. haemolyticus MRO 02064; type: cell-based
Description: as §1, §2, §3

S. aureus MRO 002053 = type: cell-based, Staphylococcus aureus
Description: as §1, §2, §3

S. aureus MRO 00013 = type: cell-based, Staphylococcus aureus
Description: as §1, §2, §3

S. aureus MRO 00055 = type: cell-based, Staphylococcus aureus
Description: as §1, §2, §3

S. aureus MRO 0001 = type: cell-based, Staphylococcus aureus
Description: as §1, §2, §3

S. aureus MRO 00030 = type: cell-based, Staphylococcus aureus
Description: as §1, §2, §3

S. aureus MRO 00048 = type: cell-based, Staphylococcus aureus
Description: as §1, §2, §3

S. aureus MRO 00059 = type: cell-based, Staphylococcus aureus
Description: as §1, §2, §3

S. aureus ATCC 29213 = type: cell-based, Staphylococcus aureus
Description: as §1, §2, §3

S. aureus MRO 0003 = type: cell-based, Staphylococcus aureus
Description: as §1, §2, §3

S. aureus ATCC 43300 = type: cell-based, Staphylococcus aureus
Description: as §1, §2, §3

E. faecium MRO 04038 = type: cell-based, Enterococcus faecium
Description: as §1, §2, §3

E. faecium MRO 04198 = type: cell-based, Enterococcus faecium
Description: as §1, §2, §3

E. faecium ATCC 700221 = type: cell-based, Enterococcus faecium
Description: as §1, §2, §3

E. faecium MRO 04037 = type: cell-based, Enterococcus faecium
Description: as §1, §2, §3

| Compound | Antimicrobial Screening (MIC) [1] [µg/mL] | Antimicrobial Screening (MIC) [2] [µg/mL] | Antimicrobial Screening (MIC) [3] [µg/mL] | Antimicrobial Screening (MIC) (E. faecalis MRO 04035) [µg/mL] | Antimicrobial Screening (MIC) (E. faecalis MRO 04050) [µg/mL] | Antimicrobial Screening (MIC) (E. faecalis MRO 04205) [µg/mL] | Antimicrobial Screening (MIC) (E. faecalis ATCC 51299) [µg/mL] | Antimicrobial Screening (MIC) (E. faecalis ATCC 29212) [µg/mL] | Antimicrobial Screening (MIC) (S. epidermidis MRO 02095) [µg/mL] | Antimicrobial Screening (MIC) [4] [µg/mL] | Antimicrobial Screening (MIC) (S. epidermidis MRO 02002) [µg/mL] | Antimicrobial Screening (MIC) [5] [µg/mL] | Antimicrobial Screening (MIC) (S. epidermidis MRO 02045) [µg/mL] | Antimicrobial Screening (MIC) [6] [µg/mL] | Antimicrobial Screening (MIC) (S. aureus MRO 002053) [µg/mL] | Antimicrobial Screening (MIC) (S. aureus MRO 00013) [µg/mL] | Antimicrobial Screening (MIC) (S. aureus MRO 00055) [µg/mL] | Antimicrobial Screening (MIC) (S. aureus MRO 0001) [µg/mL] | Antimicrobial Screening (MIC) (S. aureus MRO 00030) [µg/mL] | Antimicrobial Screening (MIC) (S. aureus MRO 00048) [µg/mL] | other results |
| --- | --- | --- | --- | --- | --- | --- | --- | --- | --- | --- | --- | --- | --- | --- | --- | --- | --- | --- | --- | --- | --- |
| COC(=S)NC[C@H]1CN(c2ccc(N3CCN(C(=O)c4cccnc4)CC3)c(F)c2)C(=O)O1 [Example 2, (S)—O-Methyl(3-(3-fluoro-4-(4-nicotinoylpiperazin-1-yl)phenyl)-2-oxooxazolidin-5-yl)methylcarbamothioate] | 1 | 4 | 4 | 0.5 | 1 | 0.5 | 0.5 | 1 | 1 | 1 | 1 | 1 | 1 | 1 | 1 | 1 | 1 | 0.5 | 1 | 0.5 | Antimicrobial Screening (MIC) (S. aureus MRO 00059): 1 µg/mL; Antimicrobial Screening (MIC) (S. aureus ATCC 29213): 1 µg/mL; Antimicrobial Screening (MIC) (S. aureus MRO 0003): 1 µg/mL; Antimicrobial Screening (MIC) (S. aureus ATCC 43300): 1 µg/mL; Antimicrobial Screening (MIC) (E. faecium MRO 04038): 0.5 µg/mL; Antimicrobial Screening (MIC) (E. faecium MRO 04198): 0.5 µg/mL; Antimicrobial Screening (MIC) (E. faecium ATCC 700221): 0.5 µg/mL; Antimicrobial Screening (MIC) (E. faecium MRO 04037): 0.5 µg/mL |
| COC(=S)NC[C@H]1CN(c2ccc(N3CCN(C(=O)c4ccc([N+](=O)[O-])o4)CC3)c(F)c2)C(=O)O1 [Example 7, (S)—O-Methyl(3-(3-fluoro-4-(4-(5-nitrofuran-2-carbonyl)piperazin-1-yl)phenyl)-2-oxooxazolidin-5-yl)methylcarbamothioate] | 0.25 | 0.25 | 0.25 | 0.125 | 0.125 | 0.125 | 0.125 | 0.125 | 0.03 | 0.03 | 0.03 | 0.125 | 0.125 | 0.125 | 0.06 | 0.25 | 0.25 | 0.125 | 0.125 | 0.125 | Antimicrobial Screening (MIC) (S. aureus MRO 00059): 0.25 µg/mL; Antimicrobial Screening (MIC) (S. aureus ATCC 29213): 0.125 µg/mL; Antimicrobial Screening (MIC) (S. aureus MRO 0003): 0.25 µg/mL; Antimicrobial Screening (MIC) (S. aureus ATCC 43300): 0.125 µg/mL; Antimicrobial Screening (MIC) (E. faecium MRO 04038): 0.125 µg/mL; Antimicrobial Screening (MIC) (E. faecium MRO 04198): 0.25 µg/mL; Antimicrobial Screening (MIC) (E. faecium ATCC 700221): 0.125 µg/mL; Antimicrobial Screening (MIC) (E. faecium MRO 04037): 0.25 µg/mL |
| COC(=S)NC[C@H]1CN(c2ccc(N3CCN(C(=O)c4ccc(N)nc4)CC3)c(F)c2)C(=O)O1 [Example 37, (S)—O-Methyl(3-(4-(4-(6-aminonicotinoyl)piperazin-1-yl)-3-fluorophenyl)-2-oxooxazolidin-5-yl)methylcarbamothioate] | 1 | 2 | 1 | 0.25 | 0.25 | 0.25 | 0.25 | 0.25 | 0.5 | 0.5 | 0.5 | 0.5 | 0.25 | 0.25 | 0.25 | 0.5 | 0.5 | 0.25 | 0.5 | 0.25 | Antimicrobial Screening (MIC) (S. aureus MRO 00059): 0.5 µg/mL; Antimicrobial Screening (MIC) (S. aureus ATCC 29213): 0.5 µg/mL; Antimicrobial Screening (MIC) (S. aureus MRO 0003): 0.5 µg/mL; Antimicrobial Screening (MIC) (S. aureus ATCC 43300): 0.5 µg/mL; Antimicrobial Screening (MIC) (E. faecium MRO 04038): 0.25 µg/mL; Antimicrobial Screening (MIC) (E. faecium MRO 04198): 0.25 µg/mL; Antimicrobial Screening (MIC) (E. faecium ATCC 700221): 0.25 µg/mL; Antimicrobial Screening (MIC) (E. faecium MRO 04037): 0.25 µg/mL |
